Where a name gives a salt, the structure may show the parent alone.
What was measured:
[1] = XRPD comparison of crystalline form ω fresh and after storage; format: physicochemical; details: in the presence of moisture; FIGS. 6 and 7: 4° C. 24 hours, room temperature 24 hours, 25° C. and 60% RH 7 days
Description: FIG. 6: Comparison of XRPD spectra of a sample of vortioxetine hydrobromide in crystalline form ω, as defined herein, freshly prepared (top line), after the same sample of vortioxetine hydrobromide in crystalline form ω has been kept at low temperature (4° C.) for 24 hours (middle line), and after the sample has been kept at room temperature for 24 hours (bottom line).
FIG. 7: Comparison of XRPD spectra of a sample of vortioxetine hydrobromide in crystalline form ω, as defined herein, freshly prepared (bottom line), and the same sample analysed after 7 days, kept at a temperature of 25° C. and 60% relative humidity (RH) (top line).
Crystalline form ω of vortioxetine hydrobromide was characterised by X-ray powder diffraction (XRPD). The X-ray powder diffraction (XRPD) spectra shown in FIGS. 3, 6 and 7 were collected with a PANalytical X'Pert PRO automatic powder diffractometer under the following operating conditions: CuKα radiation (λ=1.54 Å), scanning with a 2θ angle range of 3-40° with a step size of 0.017° for 12.7 sec.

[2] = Physical and chemical stability of crystalline form ω under standard conditions; format: physicochemical; details: standard pressure, temperature and humidity conditions; FIGS. 6 and 7
[3] = Hygroscopicity of crystalline form ω under standard storage conditions; format: physicochemical
[4] = as said in WO 2014/044721; cited from earlier work
[5] = greater relative humidity than the standard conditions; as described in WO 2007/144005, acknowledged by WO2014/044721; cited from earlier work

SMILES: Cc1ccc(Sc2ccccc2N2CCNCC2)c(C)c1 [crystalline form ω, hydrobromide salt of 1-[2-(2,4-dimethylphenylsulphanyl)phenyl]piperazine]
- retention of crystalline form (XRPD) [1]: keeps its crystalline form
- physical and chemical stability [2]: stable from both the physical and the chemical standpoint
- hygroscopicity [3]: not hygroscopic

SMILES: Cc1ccc(Sc2ccccc2N2CCNCC2)c(C)c1 [delta crystalline form, vortioxetine hydrobromide]
- solubility in water [4]: high solubility in water

SMILES: Cc1ccc(Sc2ccccc2N2CCNCC2)c(C)c1 [gamma, vortioxetine hydrobromide]
- hygroscopicity (tendency to absorb water) [5]: significant hygroscopicity
